The subject of one assay is ERα. Also noted: method as in PMID 11708925, PMID 11150164. The conditions noted are these: ERα selective agonist; RBA = 100 for estradiol; cited from earlier work.
Another assay concerns the target T1, FLAG-ERβ (Homo sapiens, UniProt Q92731).
T1 construct: FLAG-ERβ (full length version of 530 amino acids); expressed in transfected cells; pSG5-puro plasmid
Description: ERE-driven luciferase transactivation assay in HELN-Fβ cells. It counts as cell-based. The conditions noted are these: HELN-Fβ versus HELN-Fα cells, 16 hr. As for the experimental part: (§1) Cells were incubated with compounds for 16 h. At the end of the incubation, effector containing medium was removed and replaced by 0.3 mM luciferin containing 6% DCC-FCS. At this concentration, luciferin diffuses into the cell and produces a stable luminescent signal. The 96-well plate was then introduced in a microplate luminometer (Microbeta, Wallac) and intact living cell luminescence measured for 2 s. EC50 values were evaluated using Graph-Pad Prism Statistics software (version 4.0; Graph-Pad Software Inc., San Diego, CA, USA).

For a further assay, the target named is T2, FLAG-ERα (Homo sapiens, UniProt P03372).
T2 construct: expressed in transfected cells; pSG5-puro plasmid
T2 sequence (P03372 1-595): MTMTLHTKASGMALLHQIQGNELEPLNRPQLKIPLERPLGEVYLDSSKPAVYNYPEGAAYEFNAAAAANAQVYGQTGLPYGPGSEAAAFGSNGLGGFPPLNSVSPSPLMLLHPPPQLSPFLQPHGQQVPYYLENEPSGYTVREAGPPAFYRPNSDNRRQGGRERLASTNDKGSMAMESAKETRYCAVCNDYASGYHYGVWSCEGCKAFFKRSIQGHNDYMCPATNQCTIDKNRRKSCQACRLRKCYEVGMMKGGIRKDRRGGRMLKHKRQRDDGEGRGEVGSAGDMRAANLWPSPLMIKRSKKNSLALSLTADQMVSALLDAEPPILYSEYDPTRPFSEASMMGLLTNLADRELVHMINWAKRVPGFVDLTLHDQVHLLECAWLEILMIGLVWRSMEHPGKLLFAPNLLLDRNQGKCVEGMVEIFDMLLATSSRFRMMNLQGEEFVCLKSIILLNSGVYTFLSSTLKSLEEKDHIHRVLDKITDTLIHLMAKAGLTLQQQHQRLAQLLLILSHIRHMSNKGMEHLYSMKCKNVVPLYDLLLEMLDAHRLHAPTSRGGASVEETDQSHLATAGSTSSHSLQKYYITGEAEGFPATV
Description: ERE-driven luciferase transactivation assay in HELN-Fα cells. The conditions noted are these: 16 hr stimulation, luciferase activity, 100% = 10 nM E2. It counts as cell-based. As for the experimental part: as §1

Data on one compound can be found in publication PMC2749030, “New stably transfected bioluminescent cells expressing FLAG epitope-tagged estrogen receptors to study their chromatin recruitment” (BMC Biotechnology, 2009).

Molecules are shown by their SMILES.

T1 sequence (Q92731 whole entry): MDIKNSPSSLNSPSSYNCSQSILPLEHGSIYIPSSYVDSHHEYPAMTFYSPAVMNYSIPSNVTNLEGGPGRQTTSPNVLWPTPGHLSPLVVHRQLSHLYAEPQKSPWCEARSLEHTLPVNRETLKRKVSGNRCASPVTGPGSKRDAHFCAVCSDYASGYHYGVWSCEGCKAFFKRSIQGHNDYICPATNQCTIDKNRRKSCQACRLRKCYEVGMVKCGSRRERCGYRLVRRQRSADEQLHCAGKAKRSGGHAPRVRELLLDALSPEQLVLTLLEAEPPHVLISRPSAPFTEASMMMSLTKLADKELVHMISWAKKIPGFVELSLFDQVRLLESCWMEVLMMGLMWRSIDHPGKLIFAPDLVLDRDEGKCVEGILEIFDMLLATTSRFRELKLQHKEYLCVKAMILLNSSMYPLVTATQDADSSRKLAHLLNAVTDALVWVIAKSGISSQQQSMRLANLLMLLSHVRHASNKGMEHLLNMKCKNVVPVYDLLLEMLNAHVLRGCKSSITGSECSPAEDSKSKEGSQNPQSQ

Take `CCCc1c(-c2ccc(O)cc2)nn(-c2ccc(O)cc2)c1-c1ccc(O)cc1` [PPT, Propylpyrazoletriol]: the “relative binding activity (RBA)” value with ERα is on record as 49. Further, at FLAG-ERβ, the “activation of ERβ (in words)” value is listed as “activated only ERα”. This compound also yielded an EC50 on FLAG-ERα of 0.15 nM.
